The values that follow come from EP0744402B1, “POTASSIUM SALT OF BIPHENYLMETHANE DERIVATIVE AND MEDICINE CONTAINING THE SAME” (priority 1994, dated 1995).

The subject of one data set is renal hypertensive rats. Briefly: Antihypertensive action on renal hypertensive rats (invasive). It is filed as in vivo, rat. The note with it: male SD renal hypertensive rats, mean blood pressure, orally 0.3 mg/kg, suspended in 0.5% carboxymethyl cellulose. An excerpt: Antihypertensive action on renal hypertensive rats (invasive)
Renal hypertensive rats were each prepared by constricting the left renal artery of a male SD rat (age: 6 weeks old, body weight: 190-220 g) with a silver clip (inner diameter: 0.017 inch) under anesthesia. Antihypertensive action was studied employing the rats whose mean blood pressure arose to 150 mmHg or higher in 4-8 weeks after the constriction of the renal artery. On the day before the test, a cannula for measure of blood pressure was inserted into the femoral artery of each of the renal hypertensive rats under anesthesia and was allowed to remain in the artery. The rats were maintained on food and water ad libitum until immediately before the test was started. The cannula so inserted was connected to a blood pressure transducer and a mean blood pressure was recorded on a polygraph. After the blood pressure became stable, the test compound which was suspended in 0.5% carboxymethyl cellulose was orally administered to each of the rats at 0.3 mg/kg. In accordance with the following equation, a decreased rate of blood pressure (%) was calculated from the blood pressure values before and after the administration of the test compound.

The subject of a further data set is angiotensin II. Briefly: Inhibition of the angiotensin II-induced blood pressure increase in conscious normotensive rats after oral administration (invasive). It is filed as in vivo, rat. The note with it: male SD rats; angiotensin II intravenously 0.1 µg/kg; test compound orally 1.0 mg/kg in 0.5% carboxymethyl cellulose. The protocol:
On the day before the test, a cannula for the measurement of blood pressure and another cannula for the administration of a solution of angiotensin II (AII) in physiological saline (intravenously administered at 0.1 µg/kg) were inserted into the right femoral artery and the right femoral vein of each of the male SD rats (body weight: 200-350 g), respectively, under anesthesia. The rats were maintained on food and water ad libitum until immediately before the test was started. On the testing day, the former cannula so inserted was connected to a blood pressure transducer and the mean blood pressure was recorded on a polygraph. The solution of AII in physiological saline was then intravenously administered to each of the rats to raise its blood pressure. The blood-pressure raising response was repeated several times. […] In accordance with the following equation, an inhibitory rate (%) of blood pressure increase was calculated from the blood pressure increases before and after the administration of the test compound.

The nature of data set [1]: Measurement of bioavailability in rat. It is filed as in vivo. The note with it: SD male rats, fasted overnight, 3 mg/kg intravenously (physiological saline) and orally (0.5% carboxymethyl cellulose), from plasma AUC by HPLC. The protocol: Measurement of bioavailability in rat
SD Male rats of 6 weeks old (5 rats a group) were fasted overnight. The test compound was then administered to each of the rats at 3 mg/kg intravenously after dissolved in physiological saline and orally after suspended in 0.5% carboxymethyl cellulose, respectively. After administration, blood was collected periodically. From the blood so collected, plasma was separated by centrifugation. The test compound in the plasma was determined by high-performance liquid chromatography and based on it, areas under concentration (AUC) in intravenous administration and oral administration were found respectively. Bioavailability (BA) of the test compound for the rats was calculated in accordance with the following equation.

Counter-ions that a name gives are not always drawn.

Regarding `CCc1nn(Cc2ccc(-c3ccccc3-c3nnn[nH]3)cc2)c(=NC(=O)C2=C(C(=O)O)CCC2)s1` [Compound (2), 2-[[5-Ethyl-3-[2'-(1H-tetrazol-5-yl)biphenyl-4-yl]methyl-1,3,4-thiadiazolin-2-ylidene]aminocarbonyl]-1-cyclopentenecarboxylic acid], the “Rate of decrease in blood pressure” value in the data set on renal hypertensive rats came to 10.8%. The “Inhibition of blood pressure increase (%)” value in the data set with angiotensin II turned out to be 54.2%. Besides, the “BA (%)” value in data set [1] was 12.0%.

`CCc1nn(Cc2ccc(-c3ccccc3-c3nnn[nH]3)cc2)c(=NC(=O)C2=C(C(=O)O)CCC2)s1` [Compound A, dipotassium 2-[[5-ethyl-3-[2'-(1H-tetrazol-5-yl)biphenyl-4-yl]methyl-1,3,4-thiadiazolin-2-ylidene]aminocarbonyl]-1-cyclopentenecarboxylate]: the “Rate of decrease in blood pressure” value in the data set with renal hypertensive rats (0.3 mg/kg) is 23.0%. Besides, in the data set with angiotensin II, the “Inhibition of blood pressure increase (%)” value stood at 84.6%. For the same compound, the “BA (%)” value in data set [1] is reported as 42.8%.

`CCc1nn(Cc2ccc(-c3ccccc3-c3nnn[nH]3)cc2)c(=NC(=O)C2=C(C(=O)[O-])CCC2)s1.[K+]` [Compound B, monopotassium 2-[[5-ethyl-3-[2' -(1H-tetrazol-5-yl)biphenyl-4-yl]methyl-1,3,4-thiadiazolin-2-ylidene]aminocarbonyl]-1-cyclopentenecarboxylate]: the “Rate of decrease in blood pressure” value in the data set on renal hypertensive rats worked out at 19.8%.

As for `CCc1nn(Cc2ccc(-c3ccccc3-c3nn[nH]n3)cc2)c(=NC(=O)C2=C(C(=O)O)CCC2)s1` [Control 2Na salt, reference compound], the “Rate of decrease in blood pressure” value in the data set with renal hypertensive rats (0.3 mg/kg) came out at 12.9%.
